Measurements: publication PMC12518634, “The noncanonical function of liver-type phosphofructokinase potentiates the efficacy of HDAC inhibitors in cancer” (Signal Transduction and Targeted Therapy, 2025)
Read-outs that look alike come from different tables or passages of the source.

How the values were obtained:
CC56 PDX tumors = assay: CCA patient-derived xenograft tumor growth; type: in vivo; conditions: n = 5 mice per group, Fig. 2d, e
Excerpt: (§1) For patient-derived xenograft (PDX) models, fresh tumor samples were cut into small pieces of approximately 1 mm³ and subcutaneously transplanted into the flanks of NSG mice (P1 generation). After 2 to 3 months of tumor growth, the established PDX tumors were transplanted into subsequent generations (P2-Pn) under the skin of nude or NSG mice. When the tumors reached approximately 100 mm^3, the mice were randomly allocated to different groups and treated with HDAC inhibitors or saline. Tumor volume calculation, euthanasia of the mice, and specimen preparation followed the procedures of the CDX model.

CC57 PDX tumors = assay: CCA patient-derived xenograft tumor growth; type: in vivo; conditions: n = 5 mice per group, Fig. 2d, e
Excerpt: as §1

CC51 PDX tumors = assay: CCA patient-derived xenograft tumor growth; type: in vivo; conditions: n = 5 mice per group, Fig. 2d, e
Excerpt: as §1

CC11 PDX tumors = assay: CCA patient-derived xenograft tumor growth; type: in vivo; conditions: n = 5 mice per group, Fig. 2d, e
Excerpt: as §1

CC16 PDX tumors = assay: CCA patient-derived xenograft tumor growth; type: in vivo; conditions: n = 5 mice per group, Fig. 2d, e
Excerpt: as §1

CC52 PDX tumors = assay: CCA patient-derived xenograft tumor growth; type: in vivo; conditions: n = 5 mice per group, Fig. 2d, e
Excerpt: as §1

SK-CHA-1 xenografts = assay: Cell-derived xenograft tumor growth; type: in vivo; conditions: mice xenografted with PFKL high-expressed SK-CHA-1 cells; n = 5 mice per group; Fig. 2b, c
Method: (§2) For cell-derived xenograft (CDX) models, tumor cells were resuspended in saline and combined with an equal volume of Matrigel. A total of 1 × 10^6 cells in a 0.1 ml mixture were injected subcutaneously into the right flank of 6-week-old male nude mice. Once the tumor volume reached approximately 100 mm³, the mice were randomly grouped and treated with drugs or saline. The tumor volume was measured every 3 days and calculated via the following formula: tumor volume = (length × width^2) × 0.5. When the tumor volume reached 1500 mm³, the mice were euthanized via CO2 asphyxiation. The tumor tissues were harvested for further study.

HuCCT1 xenografts = assay: Cell-derived xenograft tumor growth; type: in vivo; conditions: mice xenografted with PFKL low-expressed HuCCT1 cells; n = 5 mice per group; Fig. 2b, c
Method: as §2

783C-6 xenografts = assay: Cell-derived xenograft tumor growth; type: in vivo; conditions: mice xenografted with PFKL high-expressed 783C-6 cells, n = 5 mice per group, Fig. 2b
Method: as §2

1405R3 xenografts = assay: Cell-derived xenograft tumor growth; type: in vivo; conditions: mice xenografted with PFKL low-expressed 1405R3 cells; n = 5 mice per group; Fig. 2b, c
Method: as §2

TFK1 xenografts = assay: Cell-derived xenograft tumor growth; type: in vivo; conditions: mice xenografted with PFKL high-expressed TFK1 cells; n = 5 mice per group; Fig. 2b, c
Method: as §2

1405R3 = assay: High-throughput drug screen, CellTiter-Glo viability, 72 h; type: cell-based, human; design: AUC: scale not given here; conditions: for EC50: Homo sapiens, 72 h
Outline: (§3)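 Cholangiocarcinoma cells were seeded at 3000/well in 384-well plates and dosed after 24 h. Drugs were tested at 10, 1, 0.1, 0.01 and 0.001 μM in duplicate for 72 h, with viability read by CellTiter-Glo luminescence.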

783C-6 = assay: as above; type: cell-based, human; design: AUC: scale not given here; conditions: for EC50: Homo sapiens, 72 h
Outline: as §3

SK-CHA-1 cells = assay: Cell viability assay (CellTiter-Glo, 72 h), GI50; type: cell-based; conditions: Homo sapiens, Fig. 1b
Method: (§4) Cell viability was assessed using the CellTiter-Glo luminescent cell viability assay (Vazyme, DD1101) following the manufacturer’s instructions. Briefly, 5000 cells per well were seeded into a 96-well white bottom permeable plate. Different concentrations of drugs were added to each well. After 72 h of treatment, a mixture of CellTier reagent and serum-free culture medium was prepared at a 1:1 ratio, and 100 μL of the mixture was added to each well. After incubation at 37 °C for 15 min, the luminescence was measured using a microplate reader (Synergy H1, Biotek). All the experiments were conducted in triplicate. Cell viability (relative luminescence) was defined as the luminescence of the drug treatment relative to that of the vehicle control.

HuCCT1 cells = assay: Cell viability assay (CellTiter-Glo, 72 h), GI50; type: cell-based; conditions: Homo sapiens
Method: as §4

1405R3 cells = assay: Cell viability assay (CellTiter-Glo, 72 h), GI50; type: cell-based; conditions: Homo sapiens, Fig. 1b
Method: as §4

RBE cells = assay: Cell viability assay (CellTiter-Glo, 72 h), GI50; type: cell-based; conditions: Homo sapiens, Fig. 1b
Method: as §4

783C-6 cells = assay: Cell viability assay (CellTiter-Glo, 72 h), GI50; type: cell-based; conditions: Homo sapiens
Method: as §4

[1] = HuCCT-1, 72 h, HuCCT1, 72 h, CellTiter-Glo, Fig. 1b
[2] = HuCCT-1, 72 h, HuCCT1 vector, 72 h, Fig. 1j
[3] = HuCCT-1, 72 h, HuCCT1 with PFKL overexpression (ovPFKL), 72 h, Fig. 1j
[4] = 783C-6 after interference with LHCGR si-1, Fig. 1f
[5] = 783C-6 after interference with LHCGR si-2, Fig. 1f
[6] = 783C-6 after interference with NFIA si-1, Fig. 1f
[7] = 783C-6 after interference with NFIA si-2, Fig. 1f
[8] = 783C-6 after interference with PFKFB1 si-1, Fig. 1f
[9] = 783C-6 after interference with PFKFB1 si-2, Fig. 1f
[10] = 783C-6 after interference with PFKL si-1, Fig. 1f
[11] = 783C-6 after interference with PFKL si-2, Fig. 1f
[12] = 783C-6 expressing sgNC, Fig. 1g
[13] = 783C-6 expressing sgPFKL-1, Fig. 1g
[14] = 783C-6 expressing sgPFKL-2, Fig. 1g

Row | Structure (SMILES) | PDX tumor growth compared to the control group (CC56 PDX tumors) | PDX tumor growth compared to the control group (CC57 PDX tumors) | PDX tumor growth compared to the control group (CC51 PDX tumors) | PDX tumor growth compared to the control group (CC11 PDX tumors) | PDX tumor growth compared to the control group (CC16 PDX tumors) | PDX tumor growth compared to the control group (CC52 PDX tumors) | tumor growth (SK-CHA-1 xenografts) | tumor growth (HuCCT1 xenografts) | tumor growth (783C-6 xenografts) | tumor growth (1405R3 xenografts) | tumor growth (TFK1 xenografts) | GI50 (SK-CHA-1 cells) [nM] | GI50 (HuCCT1 cells; [1]) [nM] | GI50 (HuCCT1 cells; [2]) [nM] | GI50 (HuCCT1 cells; [3]) [nM] | GI50 (1405R3 cells) [nM] | GI50 (RBE cells) [nM] | GI50 (783C-6 cells; 783C-6, CellTiter-Glo, Fig. 1b) [nM] | GI50 (783C-6 cells; [4]) [nM] | GI50 (783C-6 cells; [5]) [nM] | further results
1 | C/C=C1\NC(=O)[C@H]2CSSCC/C=C/[C@H](CC(=O)N[C@H](C(C)C)C(=O)N2)OC(=O)[C@H](C(C)C)NC1=O [Romidepsin, romidepsin] | no significant disparities | notably attenuated the growth | no significant disparities | notably attenuated the growth | notably attenuated the growth | notably attenuated the growth | markedly inhibited tumor growth | limited efficacy | markedly inhibited tumor growth | limited efficacy | markedly inhibited tumor growth | 5.5 | 83.4 | 74 | 3.96 | 64.4 | 115 | 2.55 | 3.8 | 3.4 | AUC (1405R3): 228.5; DSS (1405R3): 26.8; MIN (1405R3): 0; EC50 (1405R3): 51.3 nM; AUC (783C-6): 354.8; DSS (783C-6): 43.7; MIN (783C-6): 0; EC50 (783C-6): 2.7 nM; GI50 (HuCCT1 cells; HuCCT-1, HuCCT1, pretreated with peptide or NS for 12 h, then romidepsin 72 h, Fig. 5g): 93.5 nM; GI50 (783C-6 cells; 783C-6, romidepsin alone or combined with PFKL enzymatic activity modifier, Fig. 3b second table): 4.3 nM; GI50 (783C-6 cells; 783C-6, romidepsin alone or combined with glycolysis inhibitors, Fig. 3b first table): 3.49 nM; GI50 (783C-6 cells; [6]): 2.5 nM; GI50 (783C-6 cells; [7]): 2.8 nM; GI50 (783C-6 cells; [8]): 3.1 nM; GI50 (783C-6 cells; [9]): 2.9 nM; GI50 (783C-6 cells; [10]): 38.8 nM; GI50 (783C-6 cells; [11]): 11.4 nM; GI50 (783C-6 cells; [12]): 2.9 nM; GI50 (783C-6 cells; [13]): 34.8 nM; GI50 (783C-6 cells; [14]): 15.3 nM
2 | Cc1[nH]c2ccccc2c1CCNCc1ccc(/C=C/C(=O)NO)cc1 [Panobinostat, panobinostat] | no significant disparities | notably attenuated the growth | no significant disparities | notably attenuated the growth | notably attenuated the growth | notably attenuated the growth | markedly inhibited tumor growth | limited efficacy | markedly inhibited tumor growth | limited efficacy | markedly inhibited tumor growth | 72.2 | 244 | 285 | 31.2 | 162 | 276 | 37.4 | 48 | 65.5 | AUC (1405R3; 1405R3 DSRT analysis, area under the dose-response curve): 218.4; DSS (1405R3; 1405R3 DSRT analysis, drug sensitivity score): 25.4; MIN (1405R3; 1405R3 DSRT analysis, lower asymptote of fitted dose-response curve): 0; EC50 (1405R3; 1405R3 DSRT analysis, CellTiter-Glo viability, fitted dose-response curve, Min.Conc.tested 1, Max.Conc.tested 10000, GI50, read-out: EC50): 64.9 nM; DSS (783C-6; 783C-6 cells, DSS of DSRT analysis): 31.3; AUC (783C-6; 783C-6 cells, area under the dose-response curve): 262.4; MIN (783C-6; 783C-6 cells, minimum of dose-response curve): 0.3; EC50 (783C-6; read-out: EC50): 22.9 nM; GI50 (783C-6 cells; [6]): 56.6 nM; GI50 (783C-6 cells; [7]): 51.5 nM; GI50 (783C-6 cells; [8]): 59 nM; GI50 (783C-6 cells; [9]): 50.5 nM; GI50 (783C-6 cells; [10]): 590 nM; GI50 (783C-6 cells; [11]): 276 nM; GI50 (783C-6 cells; [12]): 52.4 nM; GI50 (783C-6 cells; [13]): 467 nM; GI50 (783C-6 cells; [14]): 250 nM; GI50 (783C-6 cells; 783C-6 siNC, Fig. 1f): 61.4 nM
